Values of other authors in US20110250132A1, “LIPOIC ACID METABOLITE: USEFUL FOR DRUG CARRIER, NANOPARTICLE CONJUGATE, IMAGING AND HYPERTHERMIA THERAPY” (priority 2010, published 2011).
Values belong to the molecule of their own block, whether it stands above or below them.

Columns and labels:
[1] = reduced form with two —SH groups
[2] = accumulates in all neuronal cell types
[3] = system: insulin-resistant rat skeletal muscle
cataracts = conditions: rats

oxidation potential [1]: −0.29 v
SMILES: O=C(O)CCCC[C@@H](S)CCS (racemic) [DHLA, dihydrolipoic acid]

blood-brain barrier crossing [2]: readily crosses the blood-brain barrier
SMILES: O=C(O)CCCCC1CCSS1 (stereo not drawn) [Alpha-lipoic acid]
preventing iron accumulation (lens epithelial cells): beneficial effects

SMILES: O=C(O)CCCC[C@@H]1CCSS1 [R-alpha-lipoic acid]
enhancing insulin-stimulated glucose transport and metabolism [3]: more effective than S-alpha-lipoic acid | preventing cataracts (cataracts): more effective than racemic alpha-lipoic acid and S-alpha-lipoic acid
